Starred links: 1 amine or outer side, 2 acyl side, 3 side chain; linkers in the order of their positions; H or OH if unused. Positions of bridges follow the written chain, without caps; N, C: chain ends. Non-standard residues stand in square brackets, D forms with d. Primed or numbered codes have the meaning given here. Chains are numbered I, II in the order given. No end group written: not given here. X1 = O=C(CCOCCOCCOCCN(CCOCCOCCOCCn1cc(CCC(=O)[*:2])nn1)CCOCCOCCOCCn1cc(CCC(=O)[*:3])nn1)[*:1]; PYA″ = 4-pentynoic acid, acylating the D-Lys side chain, alkyne clicked to the linker azide; PYA(3) = 4-pentynoic acid, on D-Lys NZ, clicked (triazole) to the linker azide; X2 = O=C(CCSCCC(=O)[*:1])N1CN(C(=O)CC[*:2])CN(C(=O)CC[*:3])C1; TATA = O=C(CC[*:1])N1CN(C(=O)CC[*:2])CN(C(=O)CC[*:3])C1; Dip = N[C@H](C(=O)O)C(c1ccccc1)c1ccccc1; 1Nal = N[C@@H](Cc1cccc2ccccc12)C(=O)O; His(τ-Me) = Cn1cnc(C[C@H](N)C(=O)O)c1; Hyp = O=C(O)[C@@H]1C[C@@H](O)CN1; hArg = N=C(N)NCCCC[C@H](N)C(=O)O; tBuAla = CC(C)(C)C[C@H](N)C(=O)O; Aad = N[C@@H](CCCC(=O)O)C(=O)O; Cysteamide = C(CS[*:3])N[*:1]; Cba = N[C@@H](CC1CCC1)C(=O)O; dK(PYA) = not defined here; dNle = CCCC[C@@H](N)C(=O)O; Nle = CCCC[C@H](N)C(=O)O; Mpa = O=C(O)CCS
Molecular target: CD137 (Homo sapiens, UniProt Q07011)
Sequence (Q07011 24-255): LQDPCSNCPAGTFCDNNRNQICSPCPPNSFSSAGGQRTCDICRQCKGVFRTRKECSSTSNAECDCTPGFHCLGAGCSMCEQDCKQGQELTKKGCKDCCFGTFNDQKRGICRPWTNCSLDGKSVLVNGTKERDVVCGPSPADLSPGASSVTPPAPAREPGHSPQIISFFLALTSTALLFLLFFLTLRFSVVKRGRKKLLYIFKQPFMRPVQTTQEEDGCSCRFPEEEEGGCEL
Assay: CD137 reporter assay (Promega, Jurkat cells) in co-culture with EphA2-expressing tumor cells (A549, PC3, HT29)
Type: cell-based
Parameters: host or cells: Jurkat reporter cells
Conditions: for fold induction / Emax (fold induction over background): CD137 reporter coculture assay with PC3 tumor cells; for fold induction: read-out: Emax (fold induction over background); for EC50: EC50, CD137 reporter coculture assay with PC3 tumor cells; for Fold Improvement over BCY9173, EC50 (nM) / Fold Improvement over Emax: co-culture with PC3; for Fold Improvement over Emax: versus BCY9173
Method: Culture medium, referred to as R1 media, is prepared by adding 1% FBS to RPMI-1640 (component of Promega kit CS196005). Serial dilutions of test articles in R1 are prepared in a sterile 96 well-plate. Add 25 μL per well of test articles or R1 (as a background control) to designated wells in a white cell culture plate. Tumor cells* are harvested and resuspended at a concentration of 400,000 cells/mL in R1 media. Twenty five (25) μL/well of tumor cells are added to the white cell culture plate. Jurkat cells (Promega kit CS196005, 0.5 mL) are thawed in the water bath and then added to 5 ml pre-warmed R1 media. Twenty five (25) μL/well of Jurkat cells are then added to the white cell culture plate. Incubate the cells and test articles for 6 h at 37° C., 5% CO2. At the end of 6 h, add 75 μL/well Bio-Glo™ reagent (Promega) and incubate for 10 min before reading luminescence in a plate reader (Clariostar, BMG). The fold change relative to cells alone (Jurkat cells+Cell line used in co-culture) is calculated and plotted in GraphPad Prism as log(agonist) vs response to determine EC50 (nM) and Fold Induction over background (Max).
The tumor cell types used in co-culture for EphA2 are A549, PC3 and HT29. The tumor cell type used in co-culture for PD-L1 is RKO.

| Fold Improvement over BCY9173, EC50 (nM) [fold] | Fold Improvement over Emax [fold] | Substance | fold induction | EC50 [nM] | Emax (fold induction over background) |
| --- | --- | --- | --- | --- | --- |
| – | – | I: A[hArg]DC[Hyp]LVNPLCL[Aad]P[dD]W[hArg]C-NH2 / II: Ac-C[tBuAla]PE[dK]PYCFADPY[Nle]CA-NH2 / III: Ac-C[tBuAla]PE[dK]PYCFADPY[Nle]CA-NH2 (linker I:4-I:11-I:18, II:1-II:8-II:15, III:1-III:8-III:15 via TATA; linker I:N-II:5-III:5 via X1) [BCY13286] | 34.1 | 0.11 | – |
| 0.5 | 1.6 | BCY12729: EphA2:CD137 1:2; BCY9594 + 2x BCY12352; linker N-(acid-PEG3)-N-bis(PEG3-azide) (peptide 1 A[hArg]DC[Hyp]LVNPLCLHP[dD]W[hArg]C; peptide 2 Ac-C[tBuAla]PE[dK(PYA)]PYCFADPY[Nle][Cysteamide]; linker I:4-I:11-I:18 via TATA (inferred); linker II:1-II:8-II:15 via TATA; linker II:N-II:5 via N‑(acid-PEG3)‑N‑bis(PEG3-azide); not fully specified (N-terminus); reading uncertain; also: chain 2 twice (1:2 complex)) | – | – | – |
| – | – | I: A[hArg]DC[Hyp][Aad]VNPLCLHP[dD]W[hArg]C-NH2 / II: Ac-C[tBuAla]PE[dK]PYCFADPY[Nle]CA-NH2 / III: Ac-C[tBuAla]PE[dK]PYCFADPY[Nle]CA-NH2 (linker I:4-I:11-I:18, II:1-II:8-II:15, III:1-III:8-III:15 via TATA; linker I:N-II:5-III:5 via X1) [BCY13284] | 34.7 | 0.25 | – |
| – | – | I: A[hArg]DC[Hyp]LVNPLCLHP[dNle]W[hArg]C-NH2 / II: Ac-C[tBuAla]PE[dK]PYCFADPY[Nle]CA-NH2 / III: Ac-C[tBuAla]PE[dK]PYCFADPY[Nle]CA-NH2 (linker I:4-I:11-I:18, II:1-II:8-II:15, III:1-III:8-III:15 via TATA; linker I:N-II:5-III:5 via X1) [BCY13288] | 43.3 | 0.09 | – |
| – | – | I: A[hArg]DC[Hyp]LVNPLCLEP[dD]WTC-NH2 / II: Ac-C[tBuAla]PE[dK]PYCFADPY[Nle]CA-NH2 / III: Ac-C[tBuAla]PE[dK]PYCFADPY[Nle]CA-NH2 (linker I:4-I:11-I:18, II:1-II:8-II:15, III:1-III:8-III:15 via TATA; linker I:N-II:5-III:5 via X1) [BCY13044] | 49.5 | 0.21 | – |
| – | – | I: [dA][hArg]DC[Hyp][Cba]VNPLCLEP[dD]WTC[dA]-NH2 / II: Ac-C[tBuAla]PE[dK]PYCFADPY[Nle]CA-NH2 / III: Ac-C[tBuAla]PE[dK]PYCFADPY[Nle]CA-NH2 (linker I:4-I:11-I:18, II:1-II:8-II:15, III:1-III:8-III:15 via TATA; linker I:N-II:5-III:5 via X1) [BCY13052] | 32.9 | 0.21 | – |
| – | – | I: Ac-A[hArg]DC[Hyp]LVNPLCLKP[dD]W[hArg]C-NH2 / II: Ac-C[tBuAla]PE[dK]PYCFADPY[Nle]CA-NH2 / III: Ac-C[tBuAla]PE[dK]PYCFADPY[Nle]CA-NH2 (linker I:4-I:11-I:18, II:1-II:8-II:15, III:1-III:8-III:15 via TATA; linker I:13-II:5-III:5 via X1) [BCY12974] | 59.6 | 0.18 | – |
| – | – | I: ADC[Hyp]LVNPLCLEP[dD]WTC-NH2 / II: Ac-C[tBuAla]PE[dK]PYCFADPY[Nle]CA-NH2 / III: Ac-C[tBuAla]PE[dK]PYCFADPY[Nle]CA-NH2 (linker I:3-I:10-I:17, II:1-II:8-II:15, III:1-III:8-III:15 via TATA; linker I:N-II:5-III:5 via X1) [BCY13282] | 40 | – | – |
| 2.05 | 1.91 | BCY14050: EphA2:CD137 1:2; BCY13918 + 2x BCY8928; linker N-(acid-PEG3)-N-bis(PEG3-azide) (peptide 1 A[hArg]DC[Hyp]LVNPLCL[His(τ-Me)]P[dD]W[hArg]C; peptide 2 Ac-C[tBuAla]PE[dK](PYA″)PYCFADPY[Nle]CA; linker I:4-I:11-I:18, II:1-II:8-II:15 via TATA (inferred); not fully specified (N-terminus, bridges); also: 2x chain 2 (2x BCY8928) on linker) | – | – | – |
| – | – | I: A[hArg]DC[Hyp]LVNPLCLEP[dD]WTC-NH2 / II: [Mpa][tBuAla]PE[dK]PYCFADPY[Nle]C-NH2 / III: [tBuAla]PE[dK]PYCFADPY[Nle]C-NH2 (linker I:4-I:11-I:18, II:1-II:8-II:15 via TATA; linker I:N-II:5-III:4 via X1; linker III:N-III:7-III:14 via X2) [BCY13138] | 32.6 | 0.17 | – |
| – | – | I: A[hArg]DC[Hyp]LVNPLCL[1Nal]P[dD]W[hArg]C-NH2 / II: Ac-C[tBuAla]PE[dK]PYCFADPY[Nle]CA-NH2 / III: Ac-C[tBuAla]PE[dK]PYCFADPY[Nle]CA-NH2 (linker I:4-I:11-I:18, II:1-II:8-II:15, III:1-III:8-III:15 via TATA; linker I:N-II:5-III:5 via X1) [BCY13271] | – | 0.09 | 44.20 |
| – | – | I: A[hArg]DC[Hyp]LVNPLCL[Nle]P[dD]W[hArg]C-NH2 / II: Ac-C[tBuAla]PE[dK]PYCFADPY[Nle]CA-NH2 / III: Ac-C[tBuAla]PE[dK]PYCFADPY[Nle]CA-NH2 (linker I:4-I:11-I:18, II:1-II:8-II:15, III:1-III:8-III:15 via TATA; linker I:N-II:5-III:5 via X1) [BCY13289] | 45.8 | 0.08 | – |
| – | – | I: A[hArg]DC[Hyp][Cba]VNPLCLEP[dD]WTC-NH2 / II: Ac-C[tBuAla]PE[dK]PYCFADPY[Nle]CA-NH2 / III: Ac-C[tBuAla]PE[dK]PYCFADPY[Nle]CA-NH2 (linker I:4-I:11-I:18, II:1-II:8-II:15, III:1-III:8-III:15 via TATA; linker I:N-II:5-III:5 via X1) [BCY13051] | – | 0.21 | 37.05 |
| – | – | I: [dA][dA]DC[Hyp]LVNPLCLEP[dD]WTC-NH2 / II: Ac-C[tBuAla]PE[dK]PYCFADPY[Nle]CA-NH2 / III: Ac-C[tBuAla]PE[dK]PYCFADPY[Nle]CA-NH2 (linker I:4-I:11-I:18, II:1-II:8-II:15, III:1-III:8-III:15 via TATA; linker I:N-II:5-III:5 via X1) [BCY13281] | 35.6 | 0.17 | – |
| 0.1 | 0.7 | BCY12725: EphA2:CD137 1:2; BCY9594 + 2x BCY12147; linker N-(acid-PEG3)-N-bis(PEG3-azide) (peptide 1 A[hArg]DC[Hyp]LVNPLCLHP[dD]W[hArg]C; peptide 2 Ac-C[tBuAla]PE[dK](PYA(3))PYCFANPY[Nle]C; linker I:4-I:11-I:18, II:1-II:8-II:15 via TATA; not fully specified (N-terminus, bridges); also: chain 2 present twice on linker, EphA2:CD137 1:2) | – | – | – |
| – | – | I: C[Hyp]LVNPLCL[Dip]P[dD]WTC-NH2 / II: [Mpa][tBuAla]PE[dK]PYCFADPY[Nle]C-NH2 / III: [tBuAla]PE[dK]PYCFADPY[Nle]C-NH2 (linker I:1-I:8-I:15, II:1-II:8-II:15 via TATA; linker I:N-II:5-III:4 via X1; linker III:N-III:7-III:14 via X2) [BCY13343] | – | 0.11 | 44.00 |
| 0.2 | 0.9 | BCY12726: EphA2:CD137 1:2; BCY9594 + 2x BCY12145; linker N-(acid-PEG3)-N-bis(PEG3-azide) (peptide 1 A[hArg]DC[Hyp]LVNPLCLHP[dD]W[hArg]C; peptide 2 Ac-C[tBuAla]PE[dK(PYA)]PYCFAEPY[Nle]C; linker I:4-I:11-I:18 via TATA (inferred); linker II:1-II:8-II:15 via TATA; linker II:N-II:5 via N‑(acid-PEG3)‑N‑bis(PEG3-azide); not fully specified (N-terminus); reading uncertain; also: chain 2 twice (1:2 complex)) | – | – | – |
| – | – | I: A[hArg]DC[Hyp]LVNPLCLEP[dA]WTC-NH2 / II: Ac-C[tBuAla]PE[dK]PYCFADPY[Nle]CA-NH2 / III: Ac-C[tBuAla]PE[dK]PYCFADPY[Nle]CA-NH2 (linker I:4-I:11-I:18, II:1-II:8-II:15, III:1-III:8-III:15 via TATA; linker I:N-II:5-III:5 via X1) [BCY13046] | 57.6 | 0.17 | – |
| – | – | I: A[hArg]DC[Hyp]LVNPLCLEP[dD]W[hArg]C-NH2 / II: Ac-C[tBuAla]PE[dK]PYCFADPY[Nle]CA-NH2 / III: Ac-C[tBuAla]PE[dK]PYCFADPY[Nle]CA-NH2 (linker I:4-I:11-I:18, II:1-II:8-II:15, III:1-III:8-III:15 via TATA; linker I:N-II:5-III:5 via X1) [BCY13042] | 58.3 | 0.08 | – |

Reference: patent US20230129258A1, “HETEROTANDEM BICYCLIC PEPTIDE COMPLEXES” (BicycleTx Limited, priority 2019, published 2023)
